Laboratory results from patent US12233060B2, “Inhibitors of Ataxia-Telangiectasia Mutated and Rad3-related protein kinase (ATR) for use in methods of treating cancer” (THE INSTITUTE OF CANCER RESEARCH: ROYAL CANCER HOSPITAL, priority 2016, dated 2025).

What was measured:
TOV21G xenografts = test: In vivo efficacy, established TOV21G xenografts; parameters: species or system mice; settings: 60 mg/kg, 4x weekly oral gavage, 28 days; p=0.014 ANOVA
[1] = test system: HCT116 ARID1A+/+ and ARID1A−/− cells; test: Mitotic spreads, chromosomal aberrations; format: cell-based, human; settings: VX-970 1 uM; p=0.0007 Student's t-test
Experimental: FIG. 5. ATRi effect on cell cycle progression, chromosomal instability, DNA damage and apoptosis. A. Barchart illustrating G2/M fraction in HCT116 ARID1A^+/+ and ARID1A^−/− cells synchronized in G1/early S phase by double thymidine block and released into fresh media containing DMSO or VX-970 (500 nM). The percentage of cells in G2/M was measured by FACS following PI staining. […] Cells were stained with DAPI. A minimum of 50 anaphases were scored in 3 biological replicate experiments. *p=0.023, Student's t-test. C. Bar chart illustrating frequency of anaphase bridges in TOV21G cells exposed to VX-970 (0.5 uM) or DMSO for 8 hours prior to fixation. Experiment performed as for (B). p=0.006 Student's t-test. D. Mitotic spread images from HCT116 ARID1A^+/+ and ARID1A^−/− cells following exposure to either DMSO or VX-970 (1 uM). Scale bar represents 20 um. E. Bar chart illustrating extent of chromosomal abnormalities in HCT116 ARID1A^+/+ and ARID1A^−/− cells exposed to VX-970 (1 uM). *p<0.05, Student's t-test. F. Western blot illustrating γH2AX in HCT116 ARID1A^+/+ and ARID1A^−/− cells exposed to VX-970 (0.5 uM) for the indicated time prior to cell lyses. G. Bar chart illustrating apoptotic fraction in cells exposed to increasing concentrations of VX-970 for 24 hours. Experiment as per FIG. 3I. H. Western blot illustrating PARP cleavage in HCT116 ARID1A^+/+ and ARID1A^−/− cells exposed to VX-970. […]

[2] = test system: synovial sarcoma PDX SA13412; test: Synovial sarcoma patient-derived xenograft treatment; format: in vivo, mice
HCT116 cells = test: DNA fibre analysis, replication fork speed in HCT116 cells with SS18-SSX1; format: cell-based, human; settings: 0.1 μM for two hours
Experimental: FIG. 10. ATR inhibitors elicit replication fork stress in SS tumour cells. […] Error bars represent SEM from triplicate experiments. p values were derived from Student's t tests. B. Western blot illustrating PARP1 cleavage in SYO1 cells exposed to VX970 for 24 hours. C. Western blot illustrating H2AX phosphorylation (γH2AX) in SYO1 cells exposed to VX970 (0.1 μM). D. Confocal microspcopy images illustrating H2AX phosphorylation in SYO1 cells exposed to VX970 (0.1 μM, 24 hours). E. Bar chart depicting data from (D). Error bars represent SEM from 100 images. p values were derived from Student's t tests. F. Replication fork speeds in SYO1 cells exposed to 0.1 μM VX970 for two hours. p value was derived from a Student's t test. G. Replication fork speeds in HCT116 cells exposed to 0.1 μM VX970 for two hours in the presence and absence of ectopic expression of a SS18-SSX1 fusion protein. p values were derived from Student's t tests. Expression of SS18-SSX1 or exposure to VX970 reduced fork speed. Combined SS18-SSX1 expression and VX970 exposure enhanced the reduction in fork speed. H and I. FACS plots from SYO1 cells exposed to VX970.
ATRi induced cytotoxicity in tumour cells derived from carcinomas is often associated with an increase in replication fork stress.

SMILES: CNCc1ccc(-c2cc(-c3nc(-c4ccc(S(=O)(=O)C(C)C)cc4)cnc3N)on2)cc1 [VX-970, 5-[4-(Isopropylsulfonyl)phenyl]-3-(3-{4-[(methylamino)methyl]phenyl}-1,2-oxazol-5-yl)-2-pyrazinamine]
- growth of established TOV21G tumours vs vehicle (TOV21G xenografts): significantly inhibited the growth
- frequency of chromosomal aberrations in ARID1A−/− cells [1]: significant enhancement in the frequency of chromosomal aberrations
- tumour growth in PDX SA13412 ([2]; established PDX, ANOVA p<0.0001): inhibition of tumour growth
- survival time of PDX-bearing mice ([2]; log rank Mantel p=0.026): increase in survival time
- decrease in replication fork speed with SS18-SSX1 expression plus VX970 (HCT116 cells): enhanced by the addition of VX970
